Consider one compound from publication PMC4109680, “Identification and Preclinical Pharmacology of the γ-Secretase Modulator BMS-869780” (International Journal of Alzheimer's Disease, 2014).

The structures appear in SMILES notation.

The test system of one test is Aβ1-40 (MEF PS1wt). The test is described as follows: Aβ1-40 ELISA in MEF dKO cultures cotransfected with APP-CTF and human presenilin-1 wild type. To be noted: wild type human presenilin-1. It counts as cell-based. The procedure:
H4-APPsw cell cultures were maintained on Dulbecco's modified Eagle's medium (DMEM) supplemented with L-glutamine (2 mM), fetal bovine serum (10%), and G418 (100 μg/mL). […] Aβ1-42 and Aβ1-40 assays, and Notch inhibition assays, were carried out as described previously. Mouse embryonic fibroblasts deficient in PS1 and PS2 (MEF dKO) were passaged twice per week in DMEM/F-12 medium, consisting of a 1 : 1 mixture of DMEM and F-12 nutrient mixture supplemented with 10% fetal bovine serum, penicillin, and streptomycin. For expression of human presenilin-1 in MEF dKO cells, the full length human presenilin-1 cDNA open reading frame was cloned between the BamHI and XhoI sites of the vector pcDNA5/FRT (Invitrogen), placing presenilin-1 expression under the control of the CMV promoter. […]
IC50 determinations for Aβ1-42 and Aβ1-40 in H4-APPsw cultures in 384-well format were determined using homogeneous time-resolved fluorescence immunoassays as previously described. […] In other experiments using H4-APPsw cultures, Aβ was quantified by ELISA; for Aβ1-42 the combination of monoclonal antibodies was 26D6 and 565-HRP; for Aβ1-40 it was TSD and 26D6-HRP, and for Aβ1-x it was 4G8 and 26D6-HRP. […] For Aβ in transiently transfected PS1/PS2 dKO fibroblasts, Aβ1-42 was quantified using an ELISA kit (WACO), and Aβ1-40 was quantified by ELISA as described above for H4-APPsw cultures. […]

Test [1] relates to rat brain APP-CTFβ and APP-CTFα. The test is described as follows: Immunoprecipitation and western blot of APP-CTFβ and APP-CTFα from rat brain. It counts as in vivo. The settings on record: oral doses 1.9-235 mg/kg, 24 hours. The procedure:
Rats were given oral doses of BMS-869780, and levels of brain Aβ, βCTF, and αCTF were determined 24 hours later. For comparison, BMS-698861 was dosed in a separate experiment and samples were taken 5 hours later. (a) Brain levels of Aβ1-42 (red), Aβ1-40 (green), Aβ1-38 (blue), and Aβ1-37 (purple) are shown as bars stacked upon one another. The total height of each bar therefore represents the sum of the four peptides. (b) Aβ1-42 (red—left Y axis) and Aβ1-x (grey—right Y axis). The same results for Aβ1-42 are plotted in both (a) and (b). (c) Rat brain βCTF was detected by western blotting of immunoprecipitates from samples of the same rat brains used for Aβ determinations. V, vehicle groups; results from rats dosed with 1.9, 22, 100, and 235 mg/kg of BMS-869780 and 10 mg/kg BMS-698861 (GSI) are indicated. (d) Western blots of immunoprecipitated αCTF from the same rat brain samples. (e) and (f) quantification of western blots shown in (c) and (d), respectively, expressed relative to percent of average level of CTF in vehicle-treated rats. Actual doses of BMS-869780 were determined by analysis of concentrations in left-over dosing solutions. […]

Regarding `COc1cc(Nc2nc3n(n2)CCCC[C@H]3c2ccc(F)cc2)ccc1-n1cnc(Cl)c1` [BMS-869780], in the test with Aβ1-40 (MEF PS1wt), the IC50 worked out at 11 nM. In addition, the “rat brain APP-CTFβ and APP-CTFα levels” value in test [1] is reported as “Neither APP-CTFβ nor APP-CTFα levels were affected”.
